Molecules are shown by their SMILES.

In general, Kd refers to the equilibrium constant for the complex coming apart. Higher therefore signals weaker binding.

Assay in all cases: In Vitro Assay
For test [1], the target named is T1, Receptor-interacting serine/threonine-protein kinase 1 (Homo sapiens, UniProt Q13546).
T1 sequence (Q13546 whole entry): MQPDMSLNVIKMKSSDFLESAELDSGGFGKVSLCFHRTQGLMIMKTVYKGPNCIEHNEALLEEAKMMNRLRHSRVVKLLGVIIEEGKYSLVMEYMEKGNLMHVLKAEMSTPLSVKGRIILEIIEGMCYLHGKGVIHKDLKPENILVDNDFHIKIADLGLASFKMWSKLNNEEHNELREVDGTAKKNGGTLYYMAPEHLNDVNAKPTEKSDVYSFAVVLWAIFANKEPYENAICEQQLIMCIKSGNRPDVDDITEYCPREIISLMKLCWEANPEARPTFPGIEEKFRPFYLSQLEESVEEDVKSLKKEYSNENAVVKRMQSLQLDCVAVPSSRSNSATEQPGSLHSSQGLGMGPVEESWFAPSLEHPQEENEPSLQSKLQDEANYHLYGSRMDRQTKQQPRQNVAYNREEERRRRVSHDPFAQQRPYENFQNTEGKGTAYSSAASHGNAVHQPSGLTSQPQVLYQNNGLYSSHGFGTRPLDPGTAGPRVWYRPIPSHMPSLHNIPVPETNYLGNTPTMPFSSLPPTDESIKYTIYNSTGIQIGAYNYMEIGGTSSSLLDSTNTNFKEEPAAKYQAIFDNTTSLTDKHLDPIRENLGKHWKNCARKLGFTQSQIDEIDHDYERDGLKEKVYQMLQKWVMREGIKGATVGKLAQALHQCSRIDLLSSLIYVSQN
The method, then: (§1) Binding affinity of the test compounds for human MLKL (full length), mouse MLKL (full length), human RIPK1 and human RIPK3 was determined using the KINOMEscan™ technology developed by DiscoverX (USA; http://www.discoverx.com). The assay was conducted according to manufacturer instructions.

In test [2] the target is Receptor-interacting serine/threonine-protein kinase 3 (Homo sapiens, UniProt Q9Y572). The protocol: as §1
Sequence of Receptor-interacting serine/threonine-protein kinase 3 (Q9Y572 whole entry, the tested form may be a part): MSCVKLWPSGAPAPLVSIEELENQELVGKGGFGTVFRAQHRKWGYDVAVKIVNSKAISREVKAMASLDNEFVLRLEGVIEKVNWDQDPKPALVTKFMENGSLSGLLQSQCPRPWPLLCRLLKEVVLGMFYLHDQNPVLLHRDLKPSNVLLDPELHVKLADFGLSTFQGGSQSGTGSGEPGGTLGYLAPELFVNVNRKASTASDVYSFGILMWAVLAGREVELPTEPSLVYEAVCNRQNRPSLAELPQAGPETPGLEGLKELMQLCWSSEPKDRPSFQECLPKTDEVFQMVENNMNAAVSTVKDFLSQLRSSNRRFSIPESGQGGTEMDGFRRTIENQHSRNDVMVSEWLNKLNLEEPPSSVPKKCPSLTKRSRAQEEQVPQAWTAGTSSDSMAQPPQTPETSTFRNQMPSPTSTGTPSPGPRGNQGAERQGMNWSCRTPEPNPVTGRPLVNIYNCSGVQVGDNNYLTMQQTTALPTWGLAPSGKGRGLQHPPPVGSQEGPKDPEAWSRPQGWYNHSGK
Test [3] deals with T2, Mixed lineage kinase domain-like protein (Homo sapiens, UniProt Q8NB16).
T2 sequence (Q8NB16 whole entry): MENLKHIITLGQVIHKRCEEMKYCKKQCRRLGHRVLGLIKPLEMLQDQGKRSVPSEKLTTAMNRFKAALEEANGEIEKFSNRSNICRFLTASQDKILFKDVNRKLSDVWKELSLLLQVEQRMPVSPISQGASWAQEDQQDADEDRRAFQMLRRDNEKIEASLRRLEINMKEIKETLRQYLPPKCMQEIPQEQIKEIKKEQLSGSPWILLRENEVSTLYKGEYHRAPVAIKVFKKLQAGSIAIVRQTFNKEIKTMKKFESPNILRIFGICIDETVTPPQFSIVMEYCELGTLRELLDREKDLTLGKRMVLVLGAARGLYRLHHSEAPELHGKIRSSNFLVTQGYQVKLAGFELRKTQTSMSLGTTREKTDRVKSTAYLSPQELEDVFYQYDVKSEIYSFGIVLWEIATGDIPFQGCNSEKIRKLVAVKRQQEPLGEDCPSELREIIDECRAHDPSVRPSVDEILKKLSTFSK
The protocol: as §1

`Nc1ncc(-c2cnn(C3CCOCC3)c2)c2occ(-c3ccc(NS(=O)(=O)C(F)F)c(OCc4ccc(F)cc4)c3)c12` [US20250115598, Compound 5]: the Kd in test [1] and in test [2] was above 2.5 µM in each case.

Take `Cn1nc(-c2ccc(NS(=O)(=O)C(F)F)c(OCc3ccc(F)cc3)c2)c2c(N)ncc(-c3ccncc3)c21` [US20250115598, Compound 14]: the Kd in test [1] and in test [2] was above 2.5 µM throughout.

Regarding `C[C@H](Oc1cc(-c2nn(C)c3c(C4=CCCN(C)C4)cnc(N)c23)ccc1NS(=O)(=O)C(F)F)c1ccc(F)cc1` [US20250115598, Compound 55], the Kd in test [1] and in test [2] was above 2.5 µM each time.

In test [3], `C[C@H](Oc1cc(-c2nn(C)c3c(-c4cnn(CCC(F)(F)F)c4)cnc(N)c23)ccc1NS(=O)(=O)C(F)F)c1ccc(F)cc1` [US20250115598, Compound 113] registered a Kd below 0.05 µM.

Turning to `COc1ccc([C@H](C)Oc2cc(-c3nn(C)c4c(-c5cnn(C6CCOCC6)c5)cnc(N)c34)ccc2NS(=O)(=O)C(F)F)cc1` [US20250115598, Compound 129], the Kd in test [1] and in test [2] was above 2.5 µM in each case.

Regarding `C[C@H](Oc1cc(-c2nn(C)c3c(-c4cnn(C5CCOCC5)c4)cnc(N)c23)ccc1NS(=O)(=O)C(F)F)c1ccc(F)cc1` [US20250115598, Compound 135], the Kd in test [1] and in test [2] was above 2.5 µM in each case.

`C[C@H](Oc1cc(-c2nn(C)c3c(-c4cnn(C5CCN(C)C(C(F)F)C5)c4)cnc(N)c23)ccc1NS(=O)(=O)C(F)F)c1ccc(F)cc1` (stereo partly drawn) [US20250115598, Compound 158]: the Kd in test [1] and in test [2] was above 2.5 µM throughout.

The values above are taken from BindingDB's records for patent US20250115598 (Anaxis Pharma, 2025).
